Data taken from article PMC11234710, “Comparison of a novel potentiator of CFTR channel activity to ivacaftor in ameliorating mucostasis caused by cigarette smoke in primary human bronchial airway epithelial cells” (Respiratory Research, 2024).

Target: F508del-CFTR (Homo sapiens, UniProt P13569, DEL508-508)
Assay: fluorescence membrane potential assay in HEK-293 cells expressing F508del-CFTR, […] °C, forskolin activated
Type: cell-based

Sequence of F508del-CFTR (P13569 with tags, fused parts or gaps DEL508-508): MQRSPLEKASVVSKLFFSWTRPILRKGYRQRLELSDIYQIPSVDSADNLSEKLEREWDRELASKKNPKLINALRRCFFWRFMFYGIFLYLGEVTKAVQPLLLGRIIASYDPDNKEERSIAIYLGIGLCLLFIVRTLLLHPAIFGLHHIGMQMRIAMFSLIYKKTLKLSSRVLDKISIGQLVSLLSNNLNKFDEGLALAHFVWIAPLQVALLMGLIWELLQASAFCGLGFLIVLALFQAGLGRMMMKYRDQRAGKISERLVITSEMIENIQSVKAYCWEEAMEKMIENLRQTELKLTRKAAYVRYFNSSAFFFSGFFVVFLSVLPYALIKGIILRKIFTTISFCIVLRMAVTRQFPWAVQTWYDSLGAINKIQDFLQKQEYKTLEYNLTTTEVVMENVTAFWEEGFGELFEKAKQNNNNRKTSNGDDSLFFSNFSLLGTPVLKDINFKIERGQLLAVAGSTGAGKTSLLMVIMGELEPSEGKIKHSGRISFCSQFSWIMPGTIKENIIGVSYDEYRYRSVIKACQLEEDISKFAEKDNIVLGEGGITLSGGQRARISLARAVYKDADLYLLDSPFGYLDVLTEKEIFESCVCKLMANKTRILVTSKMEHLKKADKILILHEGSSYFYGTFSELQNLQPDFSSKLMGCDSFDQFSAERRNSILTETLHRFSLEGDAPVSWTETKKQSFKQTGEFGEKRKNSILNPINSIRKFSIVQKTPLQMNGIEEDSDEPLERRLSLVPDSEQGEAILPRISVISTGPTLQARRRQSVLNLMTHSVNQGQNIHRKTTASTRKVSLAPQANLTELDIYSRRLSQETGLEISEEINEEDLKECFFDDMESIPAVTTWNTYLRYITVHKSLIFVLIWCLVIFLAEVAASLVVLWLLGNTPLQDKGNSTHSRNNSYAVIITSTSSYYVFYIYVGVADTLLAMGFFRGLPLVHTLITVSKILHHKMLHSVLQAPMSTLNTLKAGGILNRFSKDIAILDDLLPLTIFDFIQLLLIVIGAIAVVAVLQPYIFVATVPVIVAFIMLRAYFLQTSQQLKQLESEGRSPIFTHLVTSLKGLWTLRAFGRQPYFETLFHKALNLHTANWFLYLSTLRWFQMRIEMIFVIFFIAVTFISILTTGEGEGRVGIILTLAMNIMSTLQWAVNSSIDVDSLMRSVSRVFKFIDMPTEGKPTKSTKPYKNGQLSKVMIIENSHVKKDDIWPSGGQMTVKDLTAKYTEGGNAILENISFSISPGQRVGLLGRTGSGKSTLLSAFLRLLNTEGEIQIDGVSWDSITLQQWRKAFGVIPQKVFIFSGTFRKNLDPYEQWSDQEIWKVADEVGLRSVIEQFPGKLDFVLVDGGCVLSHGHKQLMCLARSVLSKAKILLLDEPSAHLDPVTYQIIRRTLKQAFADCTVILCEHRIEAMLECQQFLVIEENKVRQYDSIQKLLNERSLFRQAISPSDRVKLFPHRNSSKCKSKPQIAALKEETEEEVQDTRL

Compound: CC(C)(C)c1cc(C(C)(C)C)c(NC(=O)c2c[nH]c3ccccc3c2=O)cc1O [VX-770]
- EC50: 384 nM
